Several values for one entry are separate records, joined by “and”; a condition that tells them apart may be missing. Equal values may be shown once. Read-outs that look alike come from different tables or passages of the source.
Columns and labels:
Giant foxtail (GIFT) = test: whole plant or invertebrate; assay type: in vivo; details: for inhibition at 140 g/ha: Setaria faberi, iv, 312 h
Velvetleaf (VELE) [1] = test: whole plant or invertebrate; assay type: in vivo, Abutilon theophrasti; details: for inhibition at 140 g/ha: Abutilon theophrasti, iv, 312 h
Velvetleaf (VELE) [2] = test: Multi-crop greenhouse test, soil-applied (Examples 65, 66; Tables 64, 65); assay type: in vivo, Abutilon theophrasti; design: inhibition: dose or concentration left out as unconfirmed; details: Abutilon theophrasti; for inhibition at 18 g/ha: Herb. No. 1 0.018 Kg/Ha alone; for inhibition at 70 g/ha: Herb. No. 1 0.07 Kg/Ha alone; for inhibition at 280 g/ha: Herb. No. 1 0.28 Kg/Ha alone
Procedure: Tests according to this invention in various crops indicate widespread application of the invention. In Examples 62-66 below are described tests with a variety of herbicides contacted with COUNTER® 15G in the presence and absence of MON-7400 (Antidote No. 12); MON-13900 (No. 1); MON-4660 (No. 16) and flurazole (No. 16). Those tests were conducted according to Procedures IV or V described above and illustrated further in other foregoing examples. Plants used in all tests were, for crops (as abbreviated in parentheses); cotton (COTT); soybean (SOBE); CORN, grain sorghum (GRSO); wheat (WHEA) and RICE, and the weeds giant foxtail (GIFT) and velvetleaf (VELE). The data in the tables below represent averages of two replications.
In this test the crops and weeds were planted 1.3 cm deep in 13.7 cm X 27.7 cm pans containing Dupo silt loam soil. The test safeners were applied in acetone solution and COUNTER 15G as dry granules to soil cover layers and incorporated by shaking in a bag. Treated cover layers were placed on seeded pans which were transferred to greenhouse benches and subirrigated. Herbicide was applied POE six (6) days after PPI initiation and observations of plant injury made ten (10) days later; results are shown in Table 61. The herbicide used in this example was BEACON (No. 8).
In another test in the several crops and weeds used in this test series, the herbicidal component was MON-12000 (No. 1); the other components were the same. the procedure used in this test was the same as that described in Example 62, modified to use a light overhead irrigation (about 0.32 cm/day) during days 4-7 of the test. Table 64 […]

Corn = test: Greenhouse test Procedure VI: biocide and antidote in furrow, herbicide PPI in cover layer (Examples 43-47, 59-61; Tables 42-46, 58-60); assay type: in vivo; details: for safening: COUNTER 15G/PURSUIT interaction, Example 47; for safener efficacy, comparison: COUNTER 15G + PURSUIT/co-herbicides, Example 61; for % Inhibition Corn: Antidote + Biocide No. 1 in furrow
Excerpt: This procedure describes interaction among herbicide, biocide and antidote when the herbicide is incorporated in a soil cover layer and the biocide and the antidote are applied in a soil furrow containing crop seed before emergence of the crop. The soil and seeding depth were described in Procedure IV. A first container was designated as an untreated control, a second container was designated as a herbicide control, a third container was designated as a herbicide + biocide control and a fourth container as a herbicide + biocide + antidote test container. The biocide and antidote were formulated as granules. The biocide was applied to the soil furrows of the third and fourth containers at an application rate of 1.1 mg of active compound per cm of row. The antidote was applied to the soil furrow of the fourth container at an application rate of 0.37 mg of active compound per cm of row. A measured amount of the herbicide dispersed or dissolved in acetone was applied to a measured quantity of soil. The quantity of soil treated with the herbicide was thoroughly mixed to incorporate the herbicide. Samples of this soil were used to cover the seed beds of the second, third and fourth containers. For each test series, the seed bed of the first container was likewise covered by a soil layer not treated with herbicide and without biocide or antidote in the soil furrow.
The containers were then placed on a bench in a greenhouse. Watering was by subirrigation plus overhead irrigation after the plants emerged. All treatments were run in duplicate. Plant response was observed according to Procedure IV. Variations in this procedure will be noted in the examples.
In continuing tests to evaluate the variations of this invention, a series of tests were conducted to determine the efficacy of the above safeners in Examples 39-42 to alleviate corn injury induced by the interaction of various additional commercial sulfonylurea herbicides with COUNTER 15G insecticide. In this example, the tests were conducted according to Procedure VI above. In modifications of that procedure, herbicides were applied to soil samples as acetone/water suspensions, incorporated by shaking in a closed container, with subsamples used to cover furrow-treated 10.2 cm pots. Pots were subirrigated followed by overhead misting on days 6-10.
This example was designed to test the safening effect of those above safeners used in this test series to relieve corn injury by negative synergism induced by interaction of COUNTER 15G and three imidazolinone herbicides, i.e., imazaquin and imazapyr (used in the POE tests in Example 41) and AC 263222 (a.i. in CADRE® herbicide). As differing from the tests in Example 41, this test was a PPI test according to Procedure VI described above. Observation of test results (Table 43) were taken thirteen 913) days after in-furrow PPI preparation.
This example describes PPI tests to evaluate said test safeners in this series with analogs of the sulfonamide herbicides tested under POE herbicide application procedures described in Example 42. In these tests, conducted according to Procedure VI described above, Herbicide Nos. 20, 22 and 24 were applied PPI with the insecticide and antidote. Observations of tests results were made thirteen days after PPI initiation.
An additional three (3) sulfonamide herbicide analogs were tested simultaneously and under the same conditions described in Example 45.
Another test of this invention involved the safening effects of the safeners in this series against negative synergy inducted by the interaction of COUNTER 15G and a sulfonylurea herbicide (OUST®), Herbicide No. 13, and PURSUIT, an imidazolinone herbicide, No. 6. Test conditions were the same as those in Examples 43-46. Other procedures for applying herbicidal formulations are as described in Example 42. […]

Shattercane (SHCA) = assay type: in vivo
[3] = Herbicide No. 1 0.0175 Kg/Ha PPI alone, Table 19
[4] = Herbicide No. 1 0.0175 Kg/Ha PPI alone, Table 20
[5] = Herbicide No. 1 0.0175 Kg/Ha PPI alone, Table 21
[6] = Herbicide No. 1 0.0175 Kg/Ha PPI alone, Table 22
[7] = Herb. No. 1 0.14 kg/Ha alone, PPI, 13 days after planting
[8] = Table 51, Herbicide No. 1 0.14 Kg/Ha, where applied Biocide No. 8 8.96 kg/Ha and antidote 4.48 Kg/Ha, all PPI, observed 13 days after treatment

COC(=O)c1c(Cl)nn(C)c1S(=O)(=O)NC(=O)Nc1nc(OC)cc(OC)n1 [Herbicide No. 1, N-[(4,6-dimethoxypyrimidin-2-yl)aminocarbonyl]-3-chloro-4-methoxycarbonyl-5-sulfonamide, reference compound]
% Inhibition GIFT (Giant foxtail (GIFT); [3]): 15%
% Inhibition GIFT (Giant foxtail (GIFT); [4]): 0%
% Inhibition GIFT (Giant foxtail (GIFT); [5]): 0%
% Inhibition GIFT (Giant foxtail (GIFT); [6]): 0%
inhibition at 140 g/ha (Giant foxtail (GIFT); [7]): 30%
inhibition at 140 g/ha (Giant foxtail (GIFT); [8]): 60%
% Inhibition GIFT (Giant foxtail (GIFT); in vivo): 60% and 65% and 80%
inhibition at 140 g/ha (Velvetleaf (VELE) [1]; [7]): 95%
inhibition at 140 g/ha (Velvetleaf (VELE) [1]; [8]): 85%
inhibition at 140 g/ha (Velvetleaf (VELE) [1]; Table 52, Herbicide No. 1 0.14 Kg/Ha, where applied Biocide No. 5 8.96 kg/Ha and antidote 4.48 Kg/Ha, all PPI, observed 13 days after treatment): 85%
% Inhibition VELE (Velvetleaf (VELE) [1]; [3]): 85%
% Inhibition VELE (Velvetleaf (VELE) [1]; [4]): 80%
% Inhibition VELE (Velvetleaf (VELE) [1]; [5]): 80%
% Inhibition VELE (Velvetleaf (VELE) [1]; [6]): 85%
% Inhibition VELE (Velvetleaf (VELE) [1]; in vivo): 95% and 90% and 80%
inhibition (Velvetleaf (VELE) [2]; Table 64, Herb. No. 1 0.018 Kg/Ha + Biocide No. 1 8.96 Kg/Ha): 75%
inhibition at 18 g/ha (Velvetleaf (VELE) [2]; Table 64): 70%
inhibition (Velvetleaf (VELE) [2]; Table 64, Herb. No. 1 0.07 Kg/Ha + Biocide No. 1 8.96 Kg/Ha): 85%
inhibition at 70 g/ha (Velvetleaf (VELE) [2]; Table 64): 90%
inhibition (Velvetleaf (VELE) [2]; Table 64, Herb. No. 1 0.28 Kg/Ha + Biocide No. 1 8.96 Kg/Ha): 100%
inhibition at 280 g/ha (Velvetleaf (VELE) [2]; Table 64): 100%
inhibition (Velvetleaf (VELE) [2]; Table 65, Herb. No. 1 0.018 Kg/Ha + Biocide No. 1 8.96 Kg/Ha): 10%
inhibition at 18 g/ha (Velvetleaf (VELE) [2]; Table 65): 15%
inhibition (Velvetleaf (VELE) [2]; Table 65, Herb. No. 1 0.07 Kg/Ha + Biocide No. 1 8.96 Kg/Ha): 80%
inhibition at 70 g/ha (Velvetleaf (VELE) [2]; Table 65): 80%
inhibition (Velvetleaf (VELE) [2]; Table 65, Herb. No. 1 0.28 Kg/Ha + Biocide No. 1 8.96 Kg/Ha): 90%
inhibition at 280 g/ha (Velvetleaf (VELE) [2]; Table 65): 90%

O=C(OCc1ccccc1)c1sc(Cl)nc1C(F)(F)F [Antidote No. 7, 5-Thiazolecarboxylic acid, 2-chloro-4-(trifluoromethyl)-, (phenylmethyl) ester]
safening (Corn): less effective than the other safeners

COC(=O)COC(c1ccccc1)c1ccccc1 [Antidote No. 12, Acetic acid, (diphenylmethoxy)-, methyl ester]
safener efficacy, comparison (Corn): more effective than flurazole or MON-4660
safener efficacy (Corn; COUNTER 15G + XRD-498/co-herbicide mixture, Example 60): most effective safener
safening (Corn): good activity

CC1(C)OC(c2ccco2)CN1C(=O)C(Cl)Cl (centres unmarked) [Antidote No. 1, Oxazolidine, 3-(dichloroacetyl)-2,2-dimethyl-5-(2-furanyl)-]
safener efficacy, comparison (Corn): more effective than flurazole or MON-4660
safening (Corn): good activity

N#CCOc1ccc(Cl)c2cccnc12 [compound 33]
% Inhibition 5 DAP SHCA (Shattercane (SHCA); Antidote 4.48 + Biocide No. 1 8.96 Kg/Ha PPI, Herb. No. 8 0.07, 5 DAP, before herbicide application): 20%
% Inhibition 13 DAP SHCA (Shattercane (SHCA); Antidote 4.48 + Biocide No. 1 8.96 Kg/Ha PPI, Herb. No. 8 0.07 POE, 13 DAP): 90%
% Inhibition SHCA (Shattercane (SHCA); Antidote 4.48 + Biocide No. 1 8.96 Kg/Ha PPI, Herbicide No. 7 0.28 POE, 13 days after planting): 70%
% Inhibition SHCA (Shattercane (SHCA); Table 14: Herbicide No. 7 (ACCENT) 0.84 Kg/Ha POE + Biocide No. 2 8.96 Kg/Ha PPI + antidote 4.48 Kg/Ha PPI, 13 days after planting, 8 days after herbicide): 75%
% Inhibition SHCA (Shattercane (SHCA); […], 13 days after planting, 8 days after herbicide): 90%
% Inhibition SHCA (Shattercane (SHCA); […], observed 10 days after herbicide application): 55%
% Inhibition 5 DAP SHCA (Shattercane (SHCA); in vivo): 70%
% Inhibition 13 DAP SHCA (Shattercane (SHCA); in vivo): 90%
% Inhibition Corn (Corn; Herbicide No. 6 0.14 Kg/Ha PPI): 20%
% Inhibition Corn (Corn; Herbicide No. 11 0.0044 Kg/Ha PPI): 20%
% Inhibition Corn (Corn; Herbicide No. 12 0.0044 Kg/Ha PPI): 20%
% Inhibition Corn (Corn; Herbicide No. 13 0.0011 Kg/Ha PPI): 40%
% Inhibition Corn (Corn; Herbicide No. 13 0.0022 Kg/Ha PPI): 90%
% Inhibition Corn (Corn; Herbicide No. 14 0.07 Kg/Ha PPI): 10%
% Inhibition Corn (Corn; Herbicide No. 16 0.07 Kg/Ha PPI, 13 days): 35%
% Inhibition Corn (Corn; Herbicide No. 17 0.14 Kg/Ha PPI, 13 days): 20%
% Inhibition Corn (Corn; Herbicide No. 18 0.04 Kg/Ha PPI, 13 days): 5%
% Inhibition Corn (Corn; Herbicide No. 20 1.12 Kg/Ha PPI, 13 days): 50%
% Inhibition Corn (Corn; Herbicide No. 22 0.28 Kg/Ha PPI, 13 days): 5%
% Inhibition Corn (Corn; Herbicide No. 24 0.14 Kg/Ha PPI, 13 days): 40%
% Inhibition Corn (Corn; Herbicide No. 25 0.14 Kg/Ha PPI, 13 days): 20%
% Inhibition Corn (Corn; Herbicide No. 26 2.24 Kg/Ha PPI, 13 days): 10%
% Inhibition Corn (Corn; Herbicide No. 28 0.04 Kg/Ha PPI, 13 days): 30%
